Measured values taken from patent US7649007B2, “Oxazolidine derivatives as PR modulators” (Wyeth LLC, priority 2006, dated 2010).
pIC50: −log10 of the molar value.

Legend:
[1] = molecular target: T1, progesterone receptor (alkaline phosphatase activity in T47D cells) (Homo sapiens, UniProt P06401); assay: Effects of progestins and antiprogestins on alkaline phosphatase activity in T47D cells (antagonist mode); format: cell-based; settings: in the presence of 1 nM progesterone; for pIC50: 24 h
T1 construct: determining a compound's effect on alkaline phosphatase activity in T47D cells; endogenous in cells; host or cells: T47D cells
T1 sequence (P06401 1-933): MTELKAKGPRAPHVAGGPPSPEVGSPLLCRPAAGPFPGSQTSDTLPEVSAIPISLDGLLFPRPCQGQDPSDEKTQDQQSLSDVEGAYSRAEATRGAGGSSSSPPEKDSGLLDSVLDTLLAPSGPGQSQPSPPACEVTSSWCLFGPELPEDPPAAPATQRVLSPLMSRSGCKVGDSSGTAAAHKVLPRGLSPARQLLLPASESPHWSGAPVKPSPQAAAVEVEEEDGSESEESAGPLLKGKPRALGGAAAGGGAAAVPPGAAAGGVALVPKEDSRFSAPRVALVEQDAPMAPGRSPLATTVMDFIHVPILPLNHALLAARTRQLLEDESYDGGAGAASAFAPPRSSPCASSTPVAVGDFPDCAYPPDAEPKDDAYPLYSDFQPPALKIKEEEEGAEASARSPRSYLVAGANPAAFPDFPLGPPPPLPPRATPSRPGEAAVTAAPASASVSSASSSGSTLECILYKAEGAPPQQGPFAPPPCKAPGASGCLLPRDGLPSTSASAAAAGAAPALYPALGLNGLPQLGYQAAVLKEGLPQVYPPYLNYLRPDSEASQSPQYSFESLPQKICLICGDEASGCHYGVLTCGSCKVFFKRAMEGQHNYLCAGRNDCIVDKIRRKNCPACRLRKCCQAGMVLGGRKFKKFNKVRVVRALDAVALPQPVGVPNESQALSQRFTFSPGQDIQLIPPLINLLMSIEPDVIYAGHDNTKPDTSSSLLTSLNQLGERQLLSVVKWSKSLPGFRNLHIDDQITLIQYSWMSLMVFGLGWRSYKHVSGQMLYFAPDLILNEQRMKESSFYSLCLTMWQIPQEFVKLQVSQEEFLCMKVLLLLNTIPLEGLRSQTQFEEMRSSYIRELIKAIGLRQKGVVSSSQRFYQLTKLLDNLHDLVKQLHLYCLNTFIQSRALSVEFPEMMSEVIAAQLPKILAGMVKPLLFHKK
Description: (1) Effects of Progestins and Antiprogestins on Alkaline Phosphatase Activity in T47D Cells.
PURPOSE: To identify progestins or antiprogestins by determining a compound's effect on alkaline phosphatase activity in T47D cells.
Culture medium: • DMEM:F12 (1:1) (GIBCO, BRL) supplemented with 5% (v/v) charcoal stripped fetal bovine serum (not heat-inactivated), 100 U/mL penicillin, 100 μg/mL streptomycin, and 2 mM the GlutaMax™ reagent (GIBCO, BRL).
Alkaline phosphatase assay buffer: • I. 0.1M Tris-HCl, pH 9.8, containing 0.2% the Triton® X-100 reagent • II. 0.1M Tris-HCl, pH 9.8, containing 4 mM p-nitrophenyl phosphate (Sigma). B. Cell Culture and Treatment:
Frozen T47D cells were thawed in a 37° C. water bath and diluted to 280,000 cells/mL in culture medium. To each well in a 96-well plate (Falcon, Becton Dickinson Labware), 180 μL of diluted cell suspension was added.
Twenty μL of reference or test compounds diluted in the culture medium was then added to each well. When testing for progestin antagonist activity, reference antiprogestins or test compounds were added in the presence of 1 nM progesterone. The cells were incubated at 37° C. in a 5% CO2/humidified atmosphere for 24 h.
NOTE: For high throughput screening, one concentration of each compound was tested at 0.3 μg/mL. Based on an average molecular weight of 300 g/mol for the compounds in the library, the concentration was approximately 1 μM. Subsequently, active compounds were tested in dose response assays to determine EC50 and IC50. C. Alkaline Phosphatase Enzyme Assay:
At the end of treatment, the medium was removed from the plate. Fifty μL of assay buffer I was added to each well. The plates were shaken in a titer plate shaker for 15 min. Then 150 μL of assay buffer II was added to each well. Optical density measurements were taken at 5 min intervals for 30 min at a test wavelength of 405 nm.
For reference and test compounds, a dose response curve was generated for dose (X-axis) vs. the rate of enzyme reaction (slope) (Y-axis). Square root-transformed data was used for analysis of variance and nonlinear dose response curve fitting for both agonist and antagonist modes. Huber weighting was used to down-weight the effects of outliers. EC50 or IC50 values were calculated from the retransformed values. JMP software (SAS Institute, Inc.) was used for both one-way analysis of variance and non-linear dose response analysis in both single dose and dose response studies.
Progesterone and trimegestone were reference progestins and RU486 was the reference antiprogestin. All reference compounds were run in full dose response curves and the EC50 and IC50 values were calculated.

A melting point of 197 to 199 °C was found for `C[C@@H]1COC(=O)N1c1nc(-c2ccc(Br)cc2)cs1` [Example 1, (4R)-3-[4-(4-Bromophenyl)-1,3-thiazol-2-yl]-4-methyl-1,3-oxazolidin-2-one] in this work.

A melting point of 145 to 147 °C was found for `CCC1(CC)COC(=O)N1c1nc(-c2ccc(C#N)cc2)cs1` [Example 2, 4-[2-(4,4-Diethyl-2-oxo-1,3-oxazolidin-3-yl)-1,3-thiazol-4-yl]benzonitrile] in this work.

A melting point of 181 to 183 °C was found for `CC1(C)COC(=O)N1c1nc(-c2cccc(C#N)c2)cs1` [Example 3, 3-[2-(4,4-dimethyl-2-oxo-1,3-oxazolidin-3-yl)-1,3-thiazol-4-yl]benzonitrile] in this work.

A melting point of 158 to 161 °C and a pIC50 [1] of 7.27 were found for `CC1(C)COC(=N)N1c1nc(-c2ccc(C#N)cc2)cs1` [Example 4, 4-[2-(2-imino-4,4-dimethyl-1,3-oxazolidin-3-yl)-1,3-thiazol-4-yl]benzonitrile] in this work.

A pIC50 [1] of 7.19 was found for `CC1(C)CO/C(=N\C#N)N1c1nc(-c2ccc(C#N)cc2)cs1` [Example 5, {(2Z)-3-[4-(4-cyanophenyl)-1,3-thiazol-2-yl]-4,4-dimethyl-1,3-oxazolidin-2-ylidene}cyanamide] in this work.

An inhibition at 3 µM ([1]; at 3000 nM) of 100% was found for `CC1(C)CO/C(=N\S(C)(=O)=O)N1c1nc(-c2ccc(C#N)cc2)cs1` [Example 6, N-{(2Z)-3-[4-(4-Cyanophenyl)-1,3-thiazol-2-yl]-4,4-dimethyl-1,3-oxazolidin-2-ylidene}methanesulfonamide] in this work.

A pIC50 [1] of 7.97 was found for `CC(=O)/N=C1\OCC(C)(C)N1c1nc(-c2ccc(C#N)cc2)cs1` [Example 7, N-{(2Z)-3-[4-(4-Cyanophenyl)-1,3-thiazol-2-yl]-4,4-dimethyl-1,3-oxazolidin-2-ylidene}acetamide] in this work.
